{
  "source": "paper PMC10726358",
  "about": "(Journal of Medicinal Chemistry, 2023)",
  "key": {"M2 (CHRM2) [1]": {"biological_target": "T1, M2 (CHRM2) (Homo sapiens, UniProt P08172)", "T1 construct": "purchased GSK enhanced cross-screening panel (in-house)", "T1 sequence (P08172 whole entry)": "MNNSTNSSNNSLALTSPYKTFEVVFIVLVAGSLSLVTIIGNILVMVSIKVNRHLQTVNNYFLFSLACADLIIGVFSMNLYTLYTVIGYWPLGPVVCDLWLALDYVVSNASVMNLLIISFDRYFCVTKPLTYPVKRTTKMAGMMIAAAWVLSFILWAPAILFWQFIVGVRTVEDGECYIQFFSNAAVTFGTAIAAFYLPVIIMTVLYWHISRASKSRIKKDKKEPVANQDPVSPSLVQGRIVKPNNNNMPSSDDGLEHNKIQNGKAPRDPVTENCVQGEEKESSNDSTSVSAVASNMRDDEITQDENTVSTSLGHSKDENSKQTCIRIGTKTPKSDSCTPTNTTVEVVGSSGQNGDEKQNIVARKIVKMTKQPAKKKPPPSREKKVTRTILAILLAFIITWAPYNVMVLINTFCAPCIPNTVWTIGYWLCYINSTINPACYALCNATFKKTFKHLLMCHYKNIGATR", "experiment": "Cross screening: M2 (CHRM2) Human Ag", "type": "biochemical"}, "M2 (CHRM2) [2]": {"biological_target": "T1, M2 (CHRM2)", "experiment": "Cross screening: M2 (CHRM2) antagonist", "type": "biochemical"}, "SMARCA2": {"biological_target": "T2, SMARCA2 (Homo sapiens, UniProt P51531)", "T2 construct": "≥2000-fold selectivity over all 20 non-BET bromodomains tested; purchased DiscoverX", "T2 sequence (P51531 1378-1506 limits assumed)": "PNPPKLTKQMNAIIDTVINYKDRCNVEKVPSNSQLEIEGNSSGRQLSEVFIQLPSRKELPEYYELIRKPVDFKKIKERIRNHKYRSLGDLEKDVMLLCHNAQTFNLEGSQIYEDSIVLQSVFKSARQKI", "experiment": "BROMOscan SMARCA2", "type": "binding", "procedure": "(§1) The BRD4 BD1/BD2 TR-FRET assay had been used routinely for this optimization work, and in order to better understand the BET BD1 domain selectivity profile, 31 was tested in TR-FRET BRD2, BRD3, and BRDT assays.\n(§2) [52] BROMOscan recombinant protein binding assays were carried out at DiscoverX. (accessed April 4, 2023)."}, "PCAF": {"biological_target": "T3, PCAF (Homo sapiens, UniProt Q92831)", "T3 construct": "≥2000-fold selectivity over all 20 non-BET bromodomains tested; purchased DiscoverX", "T3 sequence (Q92831 723-827 limits assumed)": "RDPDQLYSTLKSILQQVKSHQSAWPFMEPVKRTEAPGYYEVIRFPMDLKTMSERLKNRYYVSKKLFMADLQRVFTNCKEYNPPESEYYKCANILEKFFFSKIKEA", "experiment": "BROMOscan PCAF", "type": "binding", "procedure": "as §1, §2"}, "Dopamine D2": {"biological_target": "T4, Dopamine D2 (Homo sapiens, UniProt P14416)", "T4 construct": "purchased GSK enhanced cross-screening panel (in-house)", "experiment": "Cross screening: Dopamine D2 Agonist", "type": "biochemical"}, "BRD8 BD2": {"biological_target": "T5, BRD8 BD2 (Homo sapiens, UniProt Q9H0E9)", "T5 construct": "BRD8 BD2; purchased DiscoverX", "experiment": "BROMOscan BRD8 BD2", "type": "binding", "procedure": "as §1, §2"}, "BRD9": {"biological_target": "T6, BRD9 (Homo sapiens, UniProt Q9H8M2)", "T6 construct": "≥2000-fold selectivity over all 20 non-BET bromodomains tested; purchased DiscoverX", "T6 sequence (Q9H8M2 136-240 limits assumed)": "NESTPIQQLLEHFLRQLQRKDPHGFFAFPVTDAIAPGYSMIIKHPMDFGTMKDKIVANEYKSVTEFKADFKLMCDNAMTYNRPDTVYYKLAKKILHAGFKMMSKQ", "experiment": "BROMOscan BRD9", "type": "binding", "procedure": "as §1, §2"}, "hERG": {"biological_target": "hERG (Homo sapiens, UniProt Q12809)", "sequence (Q12809 whole entry)": "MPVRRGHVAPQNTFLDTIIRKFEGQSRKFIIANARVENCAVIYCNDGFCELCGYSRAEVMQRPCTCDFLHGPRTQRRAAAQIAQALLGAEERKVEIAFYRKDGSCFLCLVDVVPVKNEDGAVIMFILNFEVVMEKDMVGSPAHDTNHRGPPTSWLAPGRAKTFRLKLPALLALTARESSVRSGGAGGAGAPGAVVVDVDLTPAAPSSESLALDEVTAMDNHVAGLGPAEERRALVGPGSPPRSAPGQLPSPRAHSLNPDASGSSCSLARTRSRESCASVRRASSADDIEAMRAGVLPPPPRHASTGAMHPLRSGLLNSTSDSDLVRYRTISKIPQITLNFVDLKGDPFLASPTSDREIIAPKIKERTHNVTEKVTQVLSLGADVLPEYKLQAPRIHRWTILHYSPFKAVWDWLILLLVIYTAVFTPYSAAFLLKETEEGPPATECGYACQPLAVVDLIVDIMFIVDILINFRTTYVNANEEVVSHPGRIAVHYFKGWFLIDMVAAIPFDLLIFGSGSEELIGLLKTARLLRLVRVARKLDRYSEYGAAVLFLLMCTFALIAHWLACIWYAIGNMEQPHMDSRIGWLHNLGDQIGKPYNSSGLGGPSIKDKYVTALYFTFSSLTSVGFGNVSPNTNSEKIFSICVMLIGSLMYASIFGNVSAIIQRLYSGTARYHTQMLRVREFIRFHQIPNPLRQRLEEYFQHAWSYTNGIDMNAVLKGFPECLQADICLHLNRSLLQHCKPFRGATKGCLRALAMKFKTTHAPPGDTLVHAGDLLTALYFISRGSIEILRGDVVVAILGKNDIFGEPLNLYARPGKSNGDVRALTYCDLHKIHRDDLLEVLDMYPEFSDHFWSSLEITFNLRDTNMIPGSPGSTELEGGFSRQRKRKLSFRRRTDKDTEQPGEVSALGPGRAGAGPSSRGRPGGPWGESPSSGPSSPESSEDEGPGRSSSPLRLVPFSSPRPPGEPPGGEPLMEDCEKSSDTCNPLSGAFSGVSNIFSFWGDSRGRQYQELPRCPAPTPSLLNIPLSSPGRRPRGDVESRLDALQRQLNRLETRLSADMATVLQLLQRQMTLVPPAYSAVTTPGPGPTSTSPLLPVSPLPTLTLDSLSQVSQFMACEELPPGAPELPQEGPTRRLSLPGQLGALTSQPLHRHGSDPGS", "experiment": "Cross screening: hERG blocker"}, "[3]": {"biological_target": "T7, Acetylcholinesterase (AChE) (Homo sapiens, UniProt P22303)", "T7 construct": "purchased GSK enhanced cross-screening panel (in-house)", "experiment": "Cross screening: Acetylcholinesterase (AChE) antagonist", "type": "biochemical"}, "BET BD1": {"tested_on": "BET BD1", "experiment": "BET family BD1/BD2 profiling (TR-FRET, BROMOscan)", "type": "binding, human", "procedure": "as §1\n(§3) All TR-FRET and hWB cytokine assays have been described previously.[54]\nas §2"}, "BRD2 BD2 [4]": {"biological_target": "T8, BRD2 BD2 (Homo sapiens, UniProt P25440)", "T8 construct": "BRD2 BD2; purchased DiscoverX", "T8 sequence (P25440 344-453 limits assumed)": "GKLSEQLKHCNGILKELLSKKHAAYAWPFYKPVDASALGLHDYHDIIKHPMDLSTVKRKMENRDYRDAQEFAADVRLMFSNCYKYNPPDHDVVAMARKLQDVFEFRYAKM", "experiment": "BROMOscan BRD2 BD2", "type": "binding", "procedure": "as §1, §2"}, "PXR": {"biological_target": "PXR (Homo sapiens, UniProt O75469)", "sequence (O75469 whole entry)": "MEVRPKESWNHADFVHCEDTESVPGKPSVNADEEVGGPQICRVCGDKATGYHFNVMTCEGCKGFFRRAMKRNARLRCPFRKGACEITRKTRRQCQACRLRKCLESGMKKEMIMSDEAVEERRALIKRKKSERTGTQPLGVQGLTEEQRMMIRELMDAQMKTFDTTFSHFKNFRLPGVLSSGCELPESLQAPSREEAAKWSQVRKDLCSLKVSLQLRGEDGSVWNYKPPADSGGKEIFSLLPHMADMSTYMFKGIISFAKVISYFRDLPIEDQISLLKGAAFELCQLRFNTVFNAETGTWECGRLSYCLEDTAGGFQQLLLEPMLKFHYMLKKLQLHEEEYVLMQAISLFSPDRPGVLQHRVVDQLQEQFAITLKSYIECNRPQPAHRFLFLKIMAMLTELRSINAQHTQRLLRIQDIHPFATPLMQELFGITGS", "experiment": "Cross screening: PXR Human Agonist"}, "PDE4B": {"biological_target": "T9, PDE4B (Homo sapiens, UniProt Q07343)", "T9 construct": "purchased GSK enhanced cross-screening panel (in-house)", "experiment": "Cross screening: PDE4B antagonist", "type": "biochemical"}, "BRD3 BD1": {"biological_target": "T10, BRD3 BD1 (Homo sapiens, UniProt Q15059)", "T10 construct": "BRD3 BD1; purchased DiscoverX", "T10 sequence (Q15059 34-140 limits assumed)": "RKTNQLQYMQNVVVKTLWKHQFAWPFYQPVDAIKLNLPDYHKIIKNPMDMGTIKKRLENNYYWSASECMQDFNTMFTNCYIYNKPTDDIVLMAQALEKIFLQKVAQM", "experiment": "BROMOscan BRD3 BD1", "type": "binding", "procedure": "as §1, §2"}, "Beta2 Adrenoceptor": {"biological_target": "T11, Beta2 Adrenoceptor (Homo sapiens, UniProt P07550)", "T11 construct": "purchased GSK enhanced cross-screening panel (in-house)", "T11 sequence (P07550 whole entry)": "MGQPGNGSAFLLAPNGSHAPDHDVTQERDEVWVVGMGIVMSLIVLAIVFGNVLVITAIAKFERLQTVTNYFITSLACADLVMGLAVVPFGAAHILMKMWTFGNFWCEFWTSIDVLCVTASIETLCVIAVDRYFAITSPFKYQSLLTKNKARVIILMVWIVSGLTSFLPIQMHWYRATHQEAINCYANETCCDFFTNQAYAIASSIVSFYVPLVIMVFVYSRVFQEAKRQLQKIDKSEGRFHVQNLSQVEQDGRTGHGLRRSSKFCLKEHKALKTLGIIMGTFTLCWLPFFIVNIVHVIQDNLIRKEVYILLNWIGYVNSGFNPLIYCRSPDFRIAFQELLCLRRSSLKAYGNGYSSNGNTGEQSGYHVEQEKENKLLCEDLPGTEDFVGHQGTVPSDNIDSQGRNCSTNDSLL", "experiment": "Cross screening: Beta2 Adrenoceptor Human Agonist", "type": "biochemical"}, "BRDT BD1": {"biological_target": "BRDT BD1 (Homo sapiens, UniProt Q58F21)", "experiment": "BROMOscan BRDT BD1", "type": "binding", "procedure": "as §1, §2"}, "Monoamine Oxidase A": {"biological_target": "T12, Monoamine Oxidase A (Homo sapiens, UniProt P21397)", "T12 construct": "purchased GSK enhanced cross-screening panel (in-house)", "experiment": "Cross screening: Monoamine Oxidase A antagonist", "type": "biochemical"}, "Kv1.5 (KCNA5)": {"biological_target": "T13, Kv1.5 (KCNA5) (Homo sapiens, UniProt P22460)", "T13 construct": "purchased GSK enhanced cross-screening panel (in-house)", "T13 sequence (P22460 whole entry)": "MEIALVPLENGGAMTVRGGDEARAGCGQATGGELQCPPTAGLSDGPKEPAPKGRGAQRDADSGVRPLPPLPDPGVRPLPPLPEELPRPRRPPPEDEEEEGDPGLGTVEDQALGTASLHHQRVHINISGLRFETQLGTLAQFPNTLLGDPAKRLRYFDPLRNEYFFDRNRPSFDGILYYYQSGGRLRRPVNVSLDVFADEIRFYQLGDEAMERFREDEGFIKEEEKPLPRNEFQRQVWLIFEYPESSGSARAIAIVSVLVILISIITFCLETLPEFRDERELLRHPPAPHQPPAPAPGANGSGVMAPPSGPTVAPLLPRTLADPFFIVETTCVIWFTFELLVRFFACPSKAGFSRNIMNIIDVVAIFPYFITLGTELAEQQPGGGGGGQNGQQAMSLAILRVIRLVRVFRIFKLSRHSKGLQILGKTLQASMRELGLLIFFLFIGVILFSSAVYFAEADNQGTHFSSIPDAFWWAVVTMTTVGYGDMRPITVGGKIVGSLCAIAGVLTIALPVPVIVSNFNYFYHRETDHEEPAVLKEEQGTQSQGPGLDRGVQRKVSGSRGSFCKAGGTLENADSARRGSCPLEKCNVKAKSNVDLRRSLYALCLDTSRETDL", "experiment": "Cross screening: Kv1.5 (KCNA5) blocker", "type": "biochemical"}, "MCP-1": {"tested_on": "MCP-1", "experiment": "LPS-stimulated human whole blood (hWB) MCP-1 release assay", "type": "cell-based", "description": "The utility of a chemical probe in target validation is directly related to its quality, with important publications detailing requirements to aid researchers.[36]−[38] […] It was accepted that selectivity would be judged initially through a mutant BRD4 TR-FRET assay and would likely shift depending on the protein construct and assay format. […] Previous studies have shown that BET BD1 inhibition is sufficient to inhibit in vitro production of MCP-1 in LPS-stimulated hWB and, as such, served as a relevant measure of cellular target engagement and, concomitantly, proof of cellular permeability.[12],[39] Selectivity over other human bromodomains outside of the BET family, known collectively as non-BET bromodomains, was also required,[40] with a ≥ 100-fold selectivity window targeted. To ensure the molecules remained within developable chemical space, a target property forecast index (PFI) as defined by chromLogDpH7.4 + number of aromatic rings ≤6 was set.[41]\nTo understand cellular target engagement, 21 was tested in an LPS-stimulated hWB assay measuring inhibition of the inflammatory mediator MCP-1 secretion.\nas §3"}, "[5]": {"biological_target": "T14, Aryl Hydrocarbon Receptor (Homo sapiens, UniProt P35869)", "T14 construct": "purchased GSK enhanced cross-screening panel (in-house)", "experiment": "Cross screening: Aryl Hydrocarbon Receptor", "type": "biochemical"}, "M1": {"biological_target": "T15, M1 (Homo sapiens, UniProt P11229)", "T15 construct": "purchased GSK enhanced cross-screening panel (in-house)", "experiment": "Cross screening: M1 Agonist", "type": "biochemical"}, "Alpha 1B": {"biological_target": "T16, Alpha 1B (Homo sapiens, UniProt P35368)", "T16 construct": "purchased GSK enhanced cross-screening panel (in-house)", "T16 sequence (P35368 whole entry)": "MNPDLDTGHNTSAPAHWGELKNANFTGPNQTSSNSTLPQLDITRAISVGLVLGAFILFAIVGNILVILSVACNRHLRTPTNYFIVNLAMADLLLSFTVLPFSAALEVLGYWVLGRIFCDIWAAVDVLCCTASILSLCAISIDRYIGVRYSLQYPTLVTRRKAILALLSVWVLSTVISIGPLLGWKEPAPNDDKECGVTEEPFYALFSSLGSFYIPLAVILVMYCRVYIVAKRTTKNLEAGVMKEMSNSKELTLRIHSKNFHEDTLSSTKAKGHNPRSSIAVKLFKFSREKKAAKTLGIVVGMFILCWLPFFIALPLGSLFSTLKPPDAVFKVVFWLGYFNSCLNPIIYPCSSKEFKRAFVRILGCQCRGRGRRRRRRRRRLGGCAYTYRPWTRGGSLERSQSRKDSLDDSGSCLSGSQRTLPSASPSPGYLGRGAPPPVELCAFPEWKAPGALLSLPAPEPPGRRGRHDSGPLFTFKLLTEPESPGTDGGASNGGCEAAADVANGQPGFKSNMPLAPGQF", "experiment": "Cross screening: Alpha 1B antagonist", "type": "biochemical"}, "OPRK1": {"biological_target": "T17, OPRK1 (Homo sapiens, UniProt P41145)", "T17 construct": "purchased GSK enhanced cross-screening panel (in-house)", "T17 sequence (P41145 whole entry)": "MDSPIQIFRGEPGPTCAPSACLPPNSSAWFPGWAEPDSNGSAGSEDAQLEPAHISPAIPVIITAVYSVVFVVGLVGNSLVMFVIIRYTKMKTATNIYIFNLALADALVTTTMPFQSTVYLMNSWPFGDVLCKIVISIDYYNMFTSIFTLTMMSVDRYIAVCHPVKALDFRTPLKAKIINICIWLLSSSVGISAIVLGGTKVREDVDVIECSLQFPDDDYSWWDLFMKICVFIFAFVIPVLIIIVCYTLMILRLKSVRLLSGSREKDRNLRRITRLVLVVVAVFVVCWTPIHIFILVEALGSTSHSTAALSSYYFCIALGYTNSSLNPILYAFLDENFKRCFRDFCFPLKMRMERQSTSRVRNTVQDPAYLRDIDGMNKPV", "experiment": "Cross screening: OPRK1 Agonist", "type": "biochemical"}, "hCav1_2": {"biological_target": "T18, hCav1_2 (Homo sapiens, UniProt Q13936)", "T18 construct": "purchased GSK enhanced cross-screening panel (in-house)", "experiment": "Cross screening: hCav1_2 Blocker", "type": "biochemical"}, "[6]": {"experiment": "Artificial membrane permeability assay", "settings": "PAMPA", "procedure": "as §1\nChromatographicLogD at pH 7.4, artificial membrane permeability, CLND solubility, and CAD solubility were measured using published protocols.[55]"}, "BRD3 BD2": {"biological_target": "BRD3 BD2 (Homo sapiens, UniProt Q15059)", "sequence (Q15059 306-415 limits assumed)": "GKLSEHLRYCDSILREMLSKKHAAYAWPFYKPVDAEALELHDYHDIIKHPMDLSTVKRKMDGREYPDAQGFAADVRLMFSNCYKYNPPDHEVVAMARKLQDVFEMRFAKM", "experiment": "BRD3 BD2 TR-FRET assay", "type": "binding", "procedure": "as §1, §3"}, "BRD2 BD2 [7]": {"biological_target": "T8, BRD2 BD2", "experiment": "BRD2 BD2 TR-FRET assay", "type": "binding", "procedure": "as §1, §3"}, "D1": {"biological_target": "T19, D1 (Homo sapiens, UniProt P21728)", "T19 construct": "purchased GSK enhanced cross-screening panel (in-house)", "experiment": "Cross screening: D1 antagonist", "type": "biochemical"}, "K1": {"tested_on": "K1", "experiment": "Cross screening: K1 Agonist", "type": "biochemical"}, "V1a": {"biological_target": "T20, V1a (Homo sapiens, UniProt P37288)", "T20 construct": "purchased GSK enhanced cross-screening panel (in-house)", "experiment": "Cross screening: V1a antagonist", "type": "biochemical"}, "BRD2 BD1": {"biological_target": "BRD2 BD1 (Homo sapiens, UniProt P25440)", "sequence (P25440 74-180 limits assumed)": "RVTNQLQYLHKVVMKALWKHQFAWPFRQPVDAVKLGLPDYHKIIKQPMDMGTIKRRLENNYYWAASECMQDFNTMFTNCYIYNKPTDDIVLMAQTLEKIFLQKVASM", "experiment": "BROMOscan BRD2 BD1", "type": "binding", "procedure": "as §1, §2"}, "BRPF1": {"biological_target": "T21, BRPF1 (Homo sapiens, UniProt P55201)", "T21 construct": "≥2000-fold selectivity over all 20 non-BET bromodomains tested; purchased DiscoverX", "T21 sequence (P55201 628-732 limits assumed)": "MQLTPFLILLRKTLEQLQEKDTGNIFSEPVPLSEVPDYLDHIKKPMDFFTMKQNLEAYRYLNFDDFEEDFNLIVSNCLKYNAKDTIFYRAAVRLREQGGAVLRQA", "experiment": "BROMOscan BRPF1", "type": "binding", "procedure": "as §1, §2"}},
  "note": "Like-named read-outs stand apart in the source and are kept apart here.",
  "data": [
    {"compound": "Cc1cc(-c2nc3ccccc3n2C[C@@H]2CCCN(C(=O)C3CCN(C(C)C)CC3)C2)cn(C)c1=O", "note": "[Compound 31, (S)-5-(1-((1-(1-Isopropylpiperidine-4-carbonyl)piperidin-3-yl)methyl)-1H-benzo [d]imidazole-2-yl)-1,3-dimethylpyridin-2(1H)-one]", "values": [
      {"measurement": "pXC50 M2 (CHRM2) Human Ag", "setting": "M2 (CHRM2) [1]", "result": "< 4.3"},
      {"measurement": "pXC50 M2 (CHRM2) antagonist", "setting": "M2 (CHRM2) [2]", "result": "< 4.3"},
      {"measurement": "Kd", "setting": "SMARCA2", "result": "> 31.6", "unit": "µM"},
      {"measurement": "Kd", "setting": "PCAF", "result": "> 31.6", "unit": "µM"},
      {"measurement": "pXC50 Dopamine D2 Agonist", "setting": "Dopamine D2", "result": "< 4.0"},
      {"measurement": "Kd", "setting": "BRD8 BD2", "result": "> 31.6", "unit": "µM"},
      {"measurement": "Kd", "setting": "BRD9", "result": 25.1, "unit": "µM"},
      {"measurement": "pXC50 hERG blocker", "setting": "hERG", "result": "< 4.3"},
      {"measurement": "pXC50 Acetylcholinesterase (AChE) antagonist", "setting": "[3]", "result": "< 4.0"},
      {"measurement": "BD1 domain selectivity over BD2 across the four isoforms", "setting": "BET BD1; TR-FRET BRD2, BRD3, BRD4, BRDT", "result": "at least 400 fold"},
      {"measurement": "BET BD1 domain selectivity", "setting": "BET BD1; depending on protein and assay format", "result": "300–1000 fold"},
      {"measurement": "BROMOscan pKd BRD2 BD2", "setting": "BRD2 BD2 [4]", "result": 5.5},
      {"measurement": "pXC50 PXR Human Agonist", "setting": "PXR", "result": "< 4.3"},
      {"measurement": "pKa", "setting": "pKa of the basic amine", "result": 9.6},
      {"measurement": "pXC50 PDE4B antagonist", "setting": "PDE4B", "result": "< 4.0"},
      {"measurement": "BROMOscan pKd BRD3 BD1", "setting": "BRD3 BD1", "result": 8.4},
      {"measurement": "fold selectivity BRD3 BD1 over BD2", "setting": "BRD3 BD1; BROMOscan", "result": 400, "unit": "fold"},
      {"measurement": "pXC50 Beta2 Adrenoceptor Human Agonist", "setting": "Beta2 Adrenoceptor", "result": "< 4.0"},
      {"measurement": "BROMOscan pKd BRDT BD1", "setting": "BRDT BD1", "result": 8.1},
      {"measurement": "fold selectivity BRDT BD1 over BD2", "setting": "BRDT BD1; BROMOscan", "result": 400, "unit": "fold"},
      {"measurement": "pXC50 Monoamine Oxidase A antagonist", "setting": "Monoamine Oxidase A", "result": "< 4.0"},
      {"measurement": "pXC50 Kv1.5 (KCNA5) blocker", "setting": "Kv1.5 (KCNA5)", "result": "< 4.3"},
      {"measurement": "IC50", "setting": "MCP-1; Homo sapiens, read-out: hWB MCP-1 IC50", "result": 0.126, "unit": "µM"},
      {"measurement": "IC50", "setting": "MCP-1; LPS-stimulated human whole blood, read-out: hWB MCP-1 pIC50 (converted)", "result": 0.126, "unit": "µM"},
      {"measurement": "pXC50 Aryl Hydrocarbon Receptor", "setting": "[5]", "result": "< 4.0"},
      {"measurement": "pXC50 M1 Agonist", "setting": "M1", "result": "< 4.3"},
      {"measurement": "pXC50 Alpha 1B antagonist", "setting": "Alpha 1B", "result": "< 4.6"},
      {"measurement": "pXC50 OPRK1 Agonist", "setting": "OPRK1", "result": "< 4.0"},
      {"measurement": "pXC50 hCav1_2 Blocker", "setting": "hCav1_2", "result": "< 4.0"},
      {"measurement": "Papp", "setting": "[6]", "result": "< 0.3", "unit": "×10⁻⁶ cm/s"},
      {"measurement": "BRD3 BD2 TR-FRET pIC50", "setting": "BRD3 BD2", "result": 5.1},
      {"measurement": "BRD2 BD2 TR-FRET pIC50", "setting": "BRD2 BD2 [7]", "result": 5.4},
      {"measurement": "pXC50 D1 antagonist", "setting": "D1", "result": "< 4.0"},
      {"measurement": "pXC50 K1 Agonist", "setting": "K1", "result": "< 4.0"},
      {"measurement": "pXC50 V1a antagonist", "setting": "V1a", "result": "< 4.3"},
      {"measurement": "BROMOscan pKd BRD2 BD1", "setting": "BRD2 BD1", "result": 8.5},
      {"measurement": "fold selectivity BRD2 BD1 over BD2", "setting": "BRD2 BD1; BROMOscan", "result": 1000, "unit": "fold"},
      {"measurement": "Kd", "setting": "BRPF1", "result": 15.8, "unit": "µM"}
    ]}
  ]
}
